Test results reported in patent US11358939B2, “1,4-benzodiazepin-2-one derivatives and use thereof” (priority 2017, dated 2022).

Tests used:
immobility time of mice = assay: Antidepressant activity, Porsolt forced swimming test; type: in vivo
Method: (§1) Studies of pharmacological activity of 3-arylamino-1,3-dihydro-2H-benzo[e][1,4]diazepin-2-ones, namely, their action of appetite, assessment of antihypoxic and antidepressant activity was performed in white male rats with body mass 150-180 g and male mice with body mass 18-22 g. The animals were kept on a standard laboratory diet and natural lighting. Animals of control group were given a water-Tween suspension. Test compounds were administered in a suspension with Tween-80 Reference drugs were the hormone leptin, in 0.0002 mg/kg dose, and a well-known antidepressant amitriptyline (solution for injections in 1 ml vials. Test compounds and the water-Tween suspension were administered in a dose of 0.2 ml/100 g of rat body mass.
Antidepressant activity was studied using «Porsolt forced swimming test» [15], which models stress in mice by forcing them to swim in a narrow translucent cylinder, filled by ⅓ volume with water at 23-25° C. temperature. Antidepressant action is assessed by the reduction in immobility time, when the animals have minimal amount of paddling, in seconds or percentage compared to control. The animal behavior was registered for 4 minutes after acclimatization for 2 minutes.

food consumption by rats [1] = assay: Action on appetite, Anorexia method (liquid food consumption); type: in vivo; conditions: for Amount of consumed liquid food during 30 min in ml / Food consumption, % of control: dose 0,1 mg/kg intraperitoneally
Method: as §1
The action of the compounds on rat appetite was studied using «norexia» method. For 2 weeks in an experimental equipment the rats were conditioned to consume liquid food. Then a water-Tween suspension of test articles was administered intraperitoneally to conditioned animals one day before the experiment. After 40 minutes the animals were allowed access to liquid food and the amount of consumed food (in ml) of every rat was registered every 30 minutes for 3 hours. The next day after 2 hours of deprivation the rats in control group were administered a water-Tween suspension intraperitoneally, while the test group was administered the test articles. After 40 minutes the animals were allowed access to liquid food and the amount of consumed food (in ml) of every rat was registered every 30 minutes for 3 hours. Then all food consumption values for each rat were summed and compared to control values. The control group has consumed on average 7 ml of liquid food per 30 minutes. The effect was calculated in percentage compared to control.

[2] = tested on: mice in acute confined space hypoxia; assay: Antihypoxic activity, acute confined space hypoxia (CSH); type: in vivo; conditions: 10 mg/kg
Method: as §1
Screening of antihypoxic activity was performed using the model of acute confined space hypoxia (CSH). CSH was modeled by placing mice into isolated sealed chambers (V=200 ml). Each group included 10 animals. The observation lasted until the death of the animals. Antihypoxic effect was assessed by the survival duration (in min) compared to control, which was taken as 100%, and according to the calculation of antihypoxic protection ratio (Rpr):Rpr=Tt/Tc, where Tt—average animal survival time in the test group; Tc—average animal survival time in the control group.

[3] = tested on: mice in acute confined space hypoxia; conditions: reference drug, ref. [14]; cited from earlier work
food consumption by rats [4] = assay: Action on appetite, Anorexia method (liquid food consumption); type: in vivo; conditions: leptin dose 20 nM
[5] = tested on: writhes induced by intraperitoneal acetic acid; conditions: prior art section; cited from earlier work
[6] = tested on: writhes induced by intraperitoneal acetic acid; assay: Analgesic activity, acetic acid-induced writhing test (peripheral pain model); type: in vivo; conditions: for Writhing inhibition, % of control in 1 mg/kg dose: compounds Ia, 1 mg/kg intraperitoneally, 40 min before 0.75% acetic acid
Method: Assessment of analgesic activity was performed in a model of peripheral pain based on chemical pain induced by intraperitoneal administration of acetic acid, leading to involuntary contractions of abdominal muscles, termed “writhes”, accompanied by hind leg extension and spine arching. The writhes were induced by 0.75% solution of acetic acid, which was administered intraperitoneally 40 min after intraperitoneal administration of test compounds in 0.001-5 mg/kg dose range. […] Analgesic activity was assessed by the ability of the compounds to reduce the number of writhes in test group compared to control group, and indicated as percentage using the following formula: AA=(Wc−Wt/Wc)×100%,
where AA—analgesic activity in %;
Wc—average number of writhes in control group;
Wt—average number of writhes in test group
Test compounds were studied in comparison with the reference drug sodium diclofenac in 10 mg/kg dose. ED50 was calculated using Prozorovsky method.

[7] = tested on: central benzodiazepine receptors (CBR); assay: Affinity to central benzodiazepine receptors, competitive displacement of [3H]-flumazenil (radioreceptor method); type: binding; conditions: 1×10^−6 mol/L
Method: Affinity of the compounds to central benzodiazepine receptors (CBR) was studied using radioreceptor method of competitive displacement of radioligant [^3H]-flumazenil (Ro 15-1788) from its specific binding sites at the receptor. Ligand displacement were performed in 1×10^−6 mol/L concentration.
(§2) Data on the affinity of 3-alcoxy-1,3-dihydro-2H-benzo[e][1,4]diazepin-2-ones (Ia) to central and peripheral benzodiazepine receptors is presented in Table 3.

[8] = target: peripheral benzodiazepine receptors (PBR) (Homo sapiens, UniProt P30536); assay: Affinity to peripheral benzodiazepine receptors; type: binding; conditions: 1×10^−6 mol/L
peripheral benzodiazepine receptors (PBR), sequence (P30536 whole entry, species assumed): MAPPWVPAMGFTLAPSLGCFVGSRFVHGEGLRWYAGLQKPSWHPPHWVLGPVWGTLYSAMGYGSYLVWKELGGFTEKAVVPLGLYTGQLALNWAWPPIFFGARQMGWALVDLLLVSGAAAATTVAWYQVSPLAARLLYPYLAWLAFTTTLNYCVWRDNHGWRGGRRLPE
Text: as §2

## CN(C)CCC=C1c2ccccc2CCc2ccccc21 [amitriptyline, reference compound]
Immobility time of mice; 1 mg/kg
  Reduction of immobility time compared to control: 40%

## O=C1Nc2ccc([N+](=O)[O-])cc2C(c2ccccc2F)=NC1Nc1cccc(Cl)c1 (stereo not shown) [Compound 357]
Food consumption by rats [1]
  Amount of consumed liquid food during 30 min in ml: 5,9 ± 2,2 ml
  Food consumption, % of control: 80%
[2]
  Increase of mice survival time during acute confined space hypoxia compared to control: 40.5%

## leptin
Immobility time of mice; 0.0002 mg/kg
  Reduction of immobility time compared to control: 14%
Food consumption by rats [1]; leptin 0.0002 mg/kg
  Reduction in appetite and food consumption compared to control: 63%
[3]
  Antihypoxic properties: no antihypoxic properties
Food consumption by rats [4]
  Amount of consumed liquid food during 30 min in ml: 2,5 ± 0,2 ml
  Food consumption, % of control: 37%

## CCOC1N=C(c2ccccc2)c2cc(Br)ccc2N(CC(=O)OC)C1=O (stereo not shown) [methyl-2-(7-bromo-3-etoxy-2-oxo-5-phenyl-2,3-dihydro-1H-benzo[e][1,4]diazepin-1-yl) acetate]
[5]
  ED50, analgesic activity in acetic acid-induced writhing test (prior art): 0.47 ± 0.15 mg/kg

## COC(=O)CN1C(=O)C(Nc2cccc(F)c2)N=C(c2ccccc2)c2cc(Cl)ccc21 (stereo not shown) [Compound 159]
Immobility time of mice; 1 mg/kg
  Reduction of immobility time compared to control: 32%

## CCCOC1N=C(c2ccccc2)c2cc([N+](=O)[O-])ccc2N(CC(=O)OC)C1=O (stereo not shown) [Compound 48, Methyl-2-(7-nitro-2-oxo-5-phenyl-3-propoxy-2,3-dihydro-1H-benzo[e][1,4]di-azepin-1-yl)acetate]
other
  melting point: 214 to 215 °C
[6]
  Writhing inhibition, % of control in 1 mg/kg dose: 85%
[6]; ip, intraperitoneal, Prozorovsky method
  ED50: 0.058 ± 0.015 mg/kg

## O=C1Nc2ccc(OC(F)(F)F)cc2C(c2ccccc2)=NC1Nc1ccccc1Cl (stereo not shown) [Compound 194]
Immobility time of mice; 1 mg/kg
  Reduction of immobility time compared to control: 40%
Food consumption by rats [1]; Table 6 dose 0,1 mg/kg
  Reduction in appetite and food consumption compared to control: 47%
Food consumption by rats [1]
  Amount of consumed liquid food during 30 min in ml: 3,5 ± 2,3 ml
  Food consumption, % of control: 47%

## CCCOC1N=C(c2ccccc2F)c2cc(Br)ccc2NC1=O (stereo not shown) [Compound 2]
[7]
  Affinity CBR, %: 85%
[8]
  Affinity PBR, %: 5%
[6]
  Writhing inhibition, % of control in 1 mg/kg dose: 55%

## O=C1Nc2ccc([N+](=O)[O-])cc2C(c2ccccc2)=NC1Nc1ccc(Cl)cc1 (stereo not shown) [Compound 250]
Food consumption by rats [1]
  Amount of consumed liquid food during 30 min in ml: 6,3 ± 3,2 ml
  Food consumption, % of control: 85%
[2]
  Increase of mice survival time during acute confined space hypoxia compared to control: 70%

## O=C1Nc2ccc([N+](=O)[O-])cc2C(c2ccccc2)=NC1Nc1ccccc1[N+](=O)[O-] (stereo not shown)
other
  melting point: 225 to 227 °C

## CCOC1N=C(c2ccccc2)c2cc(OC(F)(F)F)ccc2NC1=O (stereo not shown) [Compound 27]
[7]
  Affinity CBR, %: 56%
[8]
  Affinity PBR, %: 16%
[6]
  Writhing inhibition, % of control in 1 mg/kg dose: 55%
